PMC2192098 (The Journal of Experimental Medicine, 1995)

Experiments:
HepG2 cells = conditions: cell lines such as HepG2; cited from earlier work
[1] = system: C5a and FMLP receptor-activated signal transduction pathways; conditions: background statement, no reference given; cited from earlier work
[2] = system: HepG2 cells; fibrinogen and C4 synthesis; assay: Fibrinogen and C4 synthesis in HepG2 cells; type: cell-based, human; conditions: data not shown
[3] = system: HepG2 cells; C5 synthesis; assay: C5 synthesis in HepG2 cells; type: cell-based, human; conditions: HepG2, 6 h, 37°C; 1 and 10 nM; Fig. 7
[4] = system: HepG2 cells; alpha 1-antichymotrypsin synthesis; assay: alpha1-antichymotrypsin; type: cell-based, human; conditions: HepG2, 6 h, 37°C
[5] = system: HepG2 cells; transferrin synthesis; assay: Transferrin synthesis in HepG2 cells; type: cell-based, human; conditions: HepG2, 6 h, 37°C; 1 and 10 nM; Fig. 7
[6] = system: HepG2 cells; serum amyloid A or C-reactive protein synthesis; assay: Serum amyloid A and C-reactive protein synthesis in HepG2 cells; type: cell-based, human; conditions: data not shown
[7] = system: HepG2 cells; complement Bf synthesis; assay: Complement Bf synthesis in HepG2 cells; type: cell-based, human; conditions: HepG2, 6 h, 37°C; 1 and 10 nM; Fig. 7
[8] = system: HepG2 cells; albumin synthesis; assay: Albumin synthesis in HepG2 cells; type: cell-based, human; conditions: for time at which decrease in albumin synthesis becomes evident: C5a or FMLP 10 nM, Fig. 6
neutrophils = conditions: cited from earlier work
[9] = system: HepG2 cells; alpha1-AT synthesis; assay: alpha1-antitrypsin; type: cell-based, human; conditions: HepG2, 6 h, 37°C; 1 and 10 nM; Fig. 7
[10] = system: HepG2 cells; acute phase protein synthesis; assay: Synthesis of acute phase proteins in HepG2 cells; type: cell-based, human; conditions: for effect on C3 and albumin synthesis at higher concentrations: higher concentrations of chemotactic peptides, data not shown
[11] = system: HepG2 cells; complement C3 synthesis; assay: C3 synthesis in HepG2 cells; type: cell-based, human; conditions: for time at which increase in C3 synthesis becomes evident: C5a or FMLP 10 nM, HepG2, 37°C, Fig. 6; for effect on C3 synthesis: HepG2, 6 h, 37°C, 1 and 10 nM, Fig. 7
FMLPR in HepG2 cells = target: T1, FMLPR in HepG2 cells (Homo sapiens, UniProt P21462); assay: Binding of radioiodinated FMLP analogue to HepG2 cells
T1 sequence (P21462 1-350): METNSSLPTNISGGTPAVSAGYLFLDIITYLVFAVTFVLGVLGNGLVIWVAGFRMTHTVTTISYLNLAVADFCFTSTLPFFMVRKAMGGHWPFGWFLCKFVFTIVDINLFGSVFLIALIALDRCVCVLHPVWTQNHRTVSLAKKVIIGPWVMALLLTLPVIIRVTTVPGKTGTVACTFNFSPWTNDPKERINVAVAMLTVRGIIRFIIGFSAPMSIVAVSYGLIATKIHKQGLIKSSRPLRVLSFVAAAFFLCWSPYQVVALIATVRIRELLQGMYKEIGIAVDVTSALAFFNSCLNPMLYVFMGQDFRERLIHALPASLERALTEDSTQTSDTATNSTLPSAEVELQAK

[12] = system: HepG2 cells; alpha 1-antichymotrypsin synthesis; conditions: lower doses of IL-6; cited from earlier work
[13] = system: vascular tissue, smooth muscle, mast cells; conditions: cited from earlier work
human endothelial cells = conditions: cited from earlier work
C5aR in HepG2 cells = conditions: cited from earlier work
[14] = HepG2, 37°C, 10 h, serum-free, C5a or FMLP 1 and 10 nM, Fig. 5
[15] = HepG2, 6 h, 37°C, 1 and 10 nM, Fig. 7
[16] = HepG2, 10 h, IL-1β 10 ng/ml + IL-6 10 ng/ml as positive control, Fig. 5

leukemia inhibitory factor: cytokine
changes in expression of acute phase genes (HepG2 cells): changes in expression of at least several if not many acute phase genes

pertussis toxin
inhibition of C5a/FMLP receptor signal transduction [1]: is inhibited by pertussis toxin

IL-I~: cytokine (interleukin-1 beta; scan error)
changes in expression of acute phase genes (HepG2 cells): changes in expression of at least several if not many acute phase genes

formyl-methionyl-leucyl-phenylalanine [FMLP, reference compound]
effect on fibrinogen and C4 synthesis [2]: minimally and inconsistently increased
effect on C5 synthesis [3]: no effect
alpha1-ACT synthesis at higher (supersaturating) concentrations ([4]; FMLP above 20 nM, Fig. 9 left): returns to control levels
effect on alpha1-ACT synthesis ([4]; 1 and 10 nM, Fig. 7): increases
effect on transferrin synthesis [5]: decreases
induction of serum amyloid A or C-reactive protein synthesis [6]: no evidence for induc- tion
effect on complement Bf synthesis [7]: increases
time at which decrease in albumin synthesis becomes evident ([8]; HepG2, 37°C): 6 h
effect on albumin synthesis [8, 14]: concentration-dependent decreases in synthesis of albumin
effect on albumin synthesis [8, 15]: decreases
concentration at which effect on albumin biosynthesis was first evident ([8]; HepG2, 10 h, Fig. 5): 1 nM
magnitude of effect on albumin synthesis vs combination of IL-1β and IL-6 [8, 16]: less than but comparable
effect on neutrophil chemotaxis at supersaturating concentrations (neutrophils): abrogated at supersaturating concentra- tions
neutrophil program activated (neutrophils): directed cell migration, release of active oxy- gen intermediates, and release of proteolytic and phlogistic granular contents
effect on alpha1-AT synthesis [9]: no effect
lowest concentration with evident effect on synthesis of acute phase proteins ([10]; abstract): 1 nM
effect on C3 and albumin synthesis at higher concentrations [10]: dissipation of the effect
time at which increase in C3 synthesis becomes evident [11]: 6 h
effect on C3 synthesis [11]: increases
magnitude of effect on C3 synthesis vs combined effect of IL-1β and IL-6 [11, 16]: less than but comparable in magnitude

formylNLe-Leu-Phe-NLe-Tyr-Lys [radioiodinated FMLP analogue]
binding of radioiodinated FMLP analogue to HepG2 cells (FMLPR in HepG2 cells; HepG2, 2 h at 4°C, Fig. 3A): specific and saturable binding
plasma membrane receptors per cell (R) (FMLPR in HepG2 cells; Scatchard plot, HepG2, 2 h at 4°C): ~6,000 plasma membrane receptors per cell
Kd (FMLPR in HepG2 cells; Scatchard plot, HepG2 monolayers, 2 h at 4°C, DMEM, 10 mM Hepes, pH 7.2, 1 mg/ml BSA, 0.05% Tween 80, nonspecific: 200-fold (Fig. 3: 250-fold) molar excess unlabeled FMLP, gamma counting): ~2.47 nM

IL-6: prototype acute phase cytokine IL-6
concentration of maximal effect on alpha1-ACT synthesis ([4]; Fig. 9 right): 0.2 /xg/ml
effect on alpha1-ACT synthesis ([4]; IL-6, several concentrations from 0.2 μg/ml, Fig. 9 right): increase
changes in expression of acute phase genes (HepG2 cells): changes in expression of at least several if not many acute phase genes
effect on alpha1-ACT synthesis at lower doses [12]: con- centration dependent at lower doses

B1: IL-lc~: cytokine (interleukin-1 alpha; scan error) (protein, UniProt P01583 113-271, looked up)
Interleukin-1 alpha: SAPFSFLSNVKYNFMRIIKYEFILNDALNQSIIRANDQYLTAAALHNLDEAVKFDMGAYKSSKDDAKITVILRISKTQLYVTAQDEDQPVLLKEMPEIPKTITGSETNLLFFWETHGTKNYFTSVAHPNLFIATKQDYWVCLAGGPPSITDFQILENQA
changes in expression of acute phase genes (HepG2 cells): changes in expression of at least several if not many acute phase genes

B2: oncostain M: cytokine (protein, UniProt P13725 26-221, looked up)
Oncostatin-M: AAIGSCSKEYRVLLGQLQKQTDLMQDTSRLLDPYIRIQGLDVPKLREHCRERPGAFPSEETLRGLGRRGFLQTLNATLGCVLHRLADLEQRLPKAQDLERSGLNIEDLEKLQMARPNILGLRNNIYCMAQLLDNSDTAEPTKAGRGASQPPTPTPASDAFQRKLEGCRFLHGYHRFMHSVGRVFSKWGESPNRSRR
changes in expression of acute phase genes (HepG2 cells): changes in expression of at least several if not many acute phase genes

B3: IL-11: cytokine (protein, UniProt P20809 22-199, looked up)
Interleukin-11: PGPPPGPPRVSPDPRAELDSTVLLTRSLLADTRQLAAQLRDKFPADGDHNLDSLPTLAMSAGALGALQLPGVLTRLRADLLSYLRHVQWLRRAGGSSLKTLEPELGTLQARLDRLLRRLQLLMSRLALPQPPPDPPAPPLAPPSSAWGGIRAAHAILGGLHLTLDWAVRGLLLLKTRL
changes in expression of acute phase genes (HepG2 cells): changes in expression of at least several if not many acute phase genes

B4: C5a: 11,200-D cationic glycopeptide from the first 74 residues of the C5 alpha chain; recombinant human C5a (Sigma) used (protein, UniProt P01031 678-751, looked up)
C5a anaphylatoxin: TLQKKIEEIAAKYKHSVVKKCCYDGACVNNDETCEQRAARISLGPRCIKAFTECCVVASQLRANISHKDMQLGR
modifications: C5a anaphylatoxin
effect on fibrinogen and C4 synthesis [2]: minimally and inconsistently increased
effect on C5 synthesis [3]: no effect
effect on alpha1-ACT synthesis ([4]; 1 and 10 nM, Fig. 7): increases
histamine release from mast cells [13]: releaseofhistamine from mast cells
smooth muscle contraction [13]: smooth muscle contraction
vascular permeability [13]: increasedvascularpermeability
vasodilatation [13]: vasodilatation
binding to human endothelial cells (human endothelial cells): binds to human endothelial cells
effect on transferrin synthesis [5]: decreases
induction of serum amyloid A or C-reactive protein synthesis [6]: no evidence for induc- tion
effect on complement Bf synthesis [7]: increases
time at which decrease in albumin synthesis becomes evident ([8]; HepG2, 37°C): 6 h
effect on albumin synthesis [8, 14]: concentration-dependent decreases in synthesis of albumin
effect on albumin synthesis [8, 15]: decreases
effect on neutrophil chemotaxis at supersaturating concentrations (neutrophils): abrogated at supersaturating concentra- tions
neutrophil activities mediated (neutrophils): chemotactic ac- tivity, phagocytic activity, release of active oxygen inter- mediates, release of granular enzymes, and increase in adhesion/aggregationproperties in neutrophils
effect on alpha1-AT synthesis [9]: no effect
effect on C3 and albumin synthesis at higher concentrations [10]: dissipation of the effect
inhibition of binding of 125I-C5a to HepG2 cells (C5aR in HepG2 cells): inhibit binding
time at which increase in C3 synthesis becomes evident [11]: 6 h
effect on C3 synthesis [11]: increases
